Values of other authors as cited in US20020169561A1, “Modular computational models for predicting the pharmaceutical properties of chemical compunds” (priority 2001, published 2002).
Where “and” joins values, the source holds several entries; their conditions need not be identical. Equal entries are not always repeated. Where two headings read alike, the source gives them in different places.

Experiments:
[1] = in vivo drug absorption, compiled by search of the literature
renin = molecular target: T1, renin (Homo sapiens, UniProt P00797); set-up: −ΔS: unit not given here; settings: for −ΔH: enthalpy of binding to renin; for −ΔS: entropy of binding to renin; for −ΔG: free energy of binding to renin; for Kd: renin inhibitors
T1 sequence (P00797 67-406): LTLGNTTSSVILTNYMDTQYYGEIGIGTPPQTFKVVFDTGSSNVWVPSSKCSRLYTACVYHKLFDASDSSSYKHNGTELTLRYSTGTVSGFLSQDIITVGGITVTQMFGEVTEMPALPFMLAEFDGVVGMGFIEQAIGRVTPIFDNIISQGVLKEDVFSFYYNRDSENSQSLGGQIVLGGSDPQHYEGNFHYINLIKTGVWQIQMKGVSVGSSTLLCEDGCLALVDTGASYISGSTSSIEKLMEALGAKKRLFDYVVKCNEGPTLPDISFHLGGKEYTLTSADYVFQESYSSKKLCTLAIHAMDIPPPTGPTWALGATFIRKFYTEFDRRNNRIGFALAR

[2] = Caco-2 permeability coefficient, Table 3
[3] = observed, training set, Table 7

Q: For `Nc1nc2c(ncn2COCCO)c(=O)[nH]1` [Acyclovir], which “Permeability × 10^6 (cm/sec)” value (Caco-2 cell monolayer; [2]) is on record?
A: 0.25 × 10^6 (cm/sec)

Q: What about the “Obs. Pcaco-2x10^6” value (Caco-2 cell monolayer; [3]) of the same compound?
A: 0.25 x10^6

Q: For `C=CCc1ccccc1OCC(O)CNC(C)C` (stereo not shown) [Alprenolol], which “Permeability × 10^6 (cm/sec)” value (Caco-2 cell monolayer; [2]) is on record?
A: 25.30 × 10^6 (cm/sec)

Q: What about the “Obs. Pcaco-2x10^6” value (Caco-2 cell monolayer; [3]) of the same compound?
A: 25.3 x10^6

Q: And the “% Absorbed” value [1]?
A: 93%

Q: For `Cc1c(N(C)C)c(=O)n(-c2ccccc2)n1C` [Aminopyrine], which “Permeability × 10^6 (cm/sec)” value (Caco-2 cell monolayer; [2]) is on record?
A: 36.5 × 10^6 (cm/sec)

Q: Which “Permeability × 10^6 (cm/sec)” value (Caco-2 cell monolayer; Caco-2) does the source give for `CCC12CCN(CC3(O)CC3)C(Cc3ccc(O)cc31)C2(C)C` (stereo not shown) [Bremazocine] here?
A: 8.02 × 10^6 (cm/sec)

Q: And the “Obs. Pcaco-2x10^6” value (Caco-2 cell monolayer; [3])?
A: 8.02 x10^6

Q: Which results are given for `CN(C)CCCN1c2ccccc2Sc2ccc(Cl)cc21` [Chlorpromazine]?
A: Permeability × 10^6 (cm/sec) (Caco-2 cell monolayer; [2]): 19.90 × 10^6 (cm/sec); Obs. Pcaco-2x10^6 (Caco-2 cell monolayer; [3]): 19.9 x10^6; % Absorbed [1]: 90%

Q: Which “Permeability × 10^6 (cm/sec)” value (Caco-2 cell monolayer; [2]) does the source give for `Clc1cccc(Cl)c1N=C1NCCN1` [Clonidine] here?
A: 21.80 × 10^6 (cm/sec)

Q: What about the “Obs. Pcaco-2x10^6” value (Caco-2 cell monolayer; [3]) of the same compound?
A: 21.8 x10^6

Q: What about the “% Absorbed” value [1] of the same compound?
A: 100%

Q: Which “Obs. Pcaco-2x10^6” value (Caco-2 cell monolayer; [3]) does the source give for `C[C@]12C[C@H](O)[C@H]3[C@@H](CCC4=CC(=O)CC[C@@]43C)[C@@H]1CC[C@@H]2C(=O)CO` [Corticosterone] here?
A: 21.2 x10^6

Q: What about the “% Absorbed” value [1] of the same compound?
A: 100%

Q: What does the source list for `CNCCCN1c2ccccc2CCc2ccccc21` [Desipramine]?
A: Permeability × 10^6 (cm/sec) (Caco-2 cell monolayer; [2]): 24.20 × 10^6 (cm/sec); Obs. Pcaco-2x10^6 (Caco-2 cell monolayer; [3]): 24.2 x10^6; % Absorbed [1]: 95%

Q: Which “% Absorbed” value [1] does the source give for `C[C@@H]1C[C@H]2[C@@H]3CCC4=CC(=O)C=C[C@]4(C)[C@@]3(F)[C@@H](O)C[C@]2(C)[C@@]1(O)C(=O)CO` [Dexamethasone] here?
A: 100%

Q: With `CN1C(=O)CN=C(c2ccccc2)c2cc(Cl)ccc21` [Diazepam] as the compound, how does the “% Absorbed” value [1] read?
A: 100%

Q: Which results are given for `NCCc1ccc(O)c(O)c1` [Dopamine]?
A: Permeability × 10^6 (cm/sec) (Caco-2 cell monolayer; [2]): 9.33 × 10^6 (cm/sec); Obs. Pcaco-2x10^6 (Caco-2 cell monolayer; [3]): 9.33 x10^6

Q: For `Nc1nc(O)c2ncn(COC(CO)CO)c2n1` [Ganciclovir], which “% Absorbed” value [1] is on record?
A: 3%

Q: For `COc1ccc2c(c1)c(CC(=O)O)c(C)n2C(=O)c1ccc(Cl)cc1` [Indomethacin], which “Permeability × 10^6 (cm/sec)” value (Caco-2 cell monolayer; [2]) is on record?
A: 20.40 × 10^6 (cm/sec)

Q: And the “Obs. Pcaco-2x10^6” value (Caco-2 cell monolayer; [3])?
A: 20.4 x10^6

Q: For `CC(CCc1ccccc1)NCC(O)c1ccc(O)c(C(N)=O)c1` (stereo not shown) [Labetalol], which “% Absorbed” value [1] is on record?
A: 90%

Q: For `OC[C@@H](O)[C@@H](O)[C@H](O)[C@H](O)CO` [Mannitol], which “Permeability × 10^6 (cm/sec)” value (Caco-2 cell monolayer; [2]) is on record?
A: 0.38 × 10^6 (cm/sec)

Q: What about the “% Absorbed” value [1] of the same compound?
A: 16%

Q: Which “Permeability × 10^6 (cm/sec)” value (Caco-2 cell monolayer; [2]) does the source give for `COCCc1ccc(OCC(O)CNC(C)C)cc1` (stereo not shown) [Metoprolol] here?
A: 23.70 × 10^6 (cm/sec)

Q: What about the “Obs. Pcaco-2x10^6” value (Caco-2 cell monolayer; [3]) of the same compound?
A: 23.7 x10^6

Q: Which “Permeability × 10^6 (cm/sec)” value (Caco-2 cell monolayer; [2]) does the source give for `CC(C)(C)NCC(O)COc1cccc2c1CC(O)C(O)C2` (stereo not shown) [Nadolol] here?
A: 3.88 × 10^6 (cm/sec)

Q: What about the “Obs. Pcaco-2x10^6” value (Caco-2 cell monolayer; [3]) of the same compound?
A: 3.88 x10^6

Q: What does the source list for `CN1CCCC1c1cccnc1` (stereo not shown) [Nicotine]?
A: Obs. Pcaco-2x10^6 (Caco-2 cell monolayer; Caco-2): 19.4 x10^6; Permeability × 10^6 (cm/sec) (Caco-2 cell monolayer; Caco-2): 19.40 × 10^6 (cm/sec); % Absorbed [1]: 100%

Q: Which “Obs. Pcaco-2x10^6” value (Caco-2 cell monolayer; Caco-2) does the source give for `c1ccc(C2(N3CCCCC3)CCCCC2)cc1` [Phencyclidine] here?
A: 24.7 x10^6

Q: What about the “Permeability × 10^6 (cm/sec)” value (Caco-2 cell monolayer; Caco-2) of the same compound?
A: 24.70 × 10^6 (cm/sec)

Q: Which “Permeability × 10^6 (cm/sec)” value (Caco-2 cell monolayer; [2]) does the source give for `O=C1NC(=O)C(c2ccccc2)(c2ccccc2)N1` [Phenytoin] here?
A: 26.70 × 10^6 (cm/sec)

Q: What about the “Obs. Pcaco-2x10^6” value (Caco-2 cell monolayer; [3]) of the same compound?
A: 26.7 x10^6

Q: And the “% Absorbed” value [1]?
A: 90%

Q: For `CC(C)NCC(O)COc1cccc2[nH]ccc12` (stereo not shown) [Pindolol], which “Permeability × 10^6 (cm/sec)” value (Caco-2 cell monolayer; [2]) is on record?
A: 16.70 × 10^6 (cm/sec)

Q: And the “Obs. Pcaco-2x10^6” value (Caco-2 cell monolayer; [3])?
A: 16.7 x10^6

Q: And the “% Absorbed” value [1]?
A: 95%

Q: Which results are given for `CC(=O)[C@H]1CC[C@H]2[C@@H]3CCC4=CC(=O)CC[C@]4(C)[C@H]3CC[C@]12C` [Progesterone]?
A: Permeability × 10^6 (cm/sec) (Caco-2 cell monolayer; [2]): 23.70 × 10^6 (cm/sec); Obs. Pcaco-2x10^6 (Caco-2 cell monolayer; [3]): 23.7 x10^6

Q: Which “Permeability × 10^6 (cm/sec)” value (Caco-2 cell monolayer; [2]) does the source give for `CC(C)NCC(O)COc1cccc2ccccc12` (stereo not shown) [Propranolol] here?
A: 21.80 × 10^6 (cm/sec)

Q: With `O=C(O)c1ccccc1O` [Salicylic acid] as the compound, how does the “Permeability × 10^6 (cm/sec)” value (Caco-2 cell monolayer; [2]) read?
A: 22.00 × 10^6 (cm/sec)

Q: And the “Obs. Pcaco-2x10^6” value (Caco-2 cell monolayer; [3])?
A: 22 x10^6

Q: Which “Permeability × 10^6 (cm/sec)” value (Caco-2 cell monolayer; [2]) does the source give for `O=C(O)c1cc(/N=N/c2ccc(S(=O)(=O)Nc3ccccn3)cc2)ccc1O` [Sulfasalazine] here?
A: 0.30 × 10^6 (cm/sec)

Q: What about the “Obs. Pcaco-2x10^6” value (Caco-2 cell monolayer; [3]) of the same compound?
A: 0.3 x10^6

Q: Which “Permeability × 10^6 (cm/sec)” value (Caco-2 cell monolayer; [2]) does the source give for `CC(C)(C)NCC(O)c1cc(O)cc(O)c1` (stereo not shown) [Terbutaline] here?
A: 0.47 × 10^6 (cm/sec)

Q: What about the “Obs. Pcaco-2x10^6” value (Caco-2 cell monolayer; [3]) of the same compound?
A: 0.47 x10^6

Q: And the “% Absorbed” value [1]?
A: 73%

Q: For `C[C@]12CC[C@H]3[C@@H](CCC4=CC(=O)CC[C@@]43C)[C@@H]1CC[C@@H]2O` [Testosterone], which “Obs. Pcaco-2x10^6” value (Caco-2 cell monolayer; Caco-2) is on record?
A: 24.9 x10^6

Q: What about the “% Absorbed” value [1] of the same compound?
A: 100%

Q: Which results are given for `CC(C)(C)NC[C@H](O)COc1nsnc1N1CCOCC1` [Timolol]?
A: Permeability × 10^6 (cm/sec) (Caco-2 cell monolayer; [2]): 12.80 × 10^6 (cm/sec); Obs. Pcaco-2x10^6 (Caco-2 cell monolayer; [3]): 12.8 x10^6; % Absorbed [1]: 72%

Q: For `NC(N)=O` [Urea], which “Permeability × 10^6 (cm/sec)” value (Caco-2 cell monolayer; [2]) is on record?
A: 4.56 × 10^6 (cm/sec)

Q: Which “Permeability × 10^6 (cm/sec)” value (Caco-2 cell monolayer; [2]) does the source give for `CC(=O)CC(c1ccccc1)c1c(O)c2ccccc2oc1=O` (stereo not shown) [Warfarin] here?
A: 21.10 × 10^6 (cm/sec)

Q: Which “Permeability × 10^6 (cm/sec)” value (Caco-2 cell monolayer; [2]) does the source give for `Cc1cn([C@H]2C[C@H](N=[N+]=[N-])[C@@H](CO)O2)c(=O)[nH]c1=O` [Zidovudine] here?
A: 6.93 × 10^6 (cm/sec)

Q: And the “% Absorbed” value [1]?
A: 100%

Q: Which “−ΔH” value (renin) does the source give for “Ac-D-pro-phe-his-leu-Y[CH(OH)CH2]val-ile-NH2 [Compound U77647E]” here?
A: 20.33 kcal/mol

Q: And the “−ΔS” value (renin)?
A: 105.5

Q: What about the “−ΔG” value (renin) of the same compound?
A: 12.4 kcal/mol

Q: What about the Kd (renin) of the same compound?
A: 1.3 nM

Q: For “Ac-his-pro-phe-his-sta-ile-NH2 [Compound U72409E]”, which “−ΔH” value (renin) is on record?
A: 22.63 kcal/mol

Q: What about the “−ΔS” value (renin) of the same compound?
A: 108.0

Q: What about the “−ΔG” value (renin) of the same compound?
A: 10.8 kcal/mol

Q: And the Kd (renin)?
A: 23 nM

Q: Which results are given for “Ac-phe-his-leu-y[CH(OH)CH2]val-ile-NH2 [Compound U80631E]”?
A: −ΔH (renin): 14.28 kcal/mol; −ΔS (renin): 75.7; −ΔG (renin): 9.2 kcal/mol; Kd (renin): 370 nM

Q: For “Ac-phe-his-phe-Y[CH2NH]phe-NH2 [Compound U73777E]”, which “−ΔH” value (renin) is on record?
A: 14.20 kcal/mol

Q: What about the “−ΔS” value (renin) of the same compound?
A: 76.3

Q: And the “−ΔG” value (renin)?
A: 9.4 kcal/mol

Q: What about the Kd (renin) of the same compound?
A: 220 nM

Q: What does the source list for “Ac-phe-his-sta-ile-NH2 [Compound U72407E]”?
A: −ΔH (renin): 26.10 kcal/mol; −ΔS (renin): 114.8; −ΔG (renin): 9.5 kcal/mol; Kd (renin): 203 nM and 204 nM

Q: What does the source list for “Ac-pro-phe-his-leu-Y[CH(OH)CH2]val-ile-NH2 [Compound U77646E]”?
A: −ΔH (renin): 28.75 kcal/mol; −ΔS (renin): 131.1; −ΔG (renin): 11.5 kcal/mol; Kd (renin): 5.4 nM

Q: With “Ac-pro-phe-his-phe-Y[CH2NH]phe-Mba [Compound U77451E]” as the compound, how does the “−ΔH” value (renin) read?
A: 26.70 kcal/mol

Q: And the “−ΔS” value (renin)?
A: 125.3

Q: What about the “−ΔG” value (renin) of the same compound?
A: 12.2 kcal/mol

Q: What about the Kd (renin) of the same compound?
A: 2.5 nM

Q: What does the source list for “Ac-pro-phe-his-phe-Y[CH2NH]phe-NH2 [Compound U71909E]”?
A: −ΔH (renin): 13.70 kcal/mol; −ΔS (renin): 78.4; −ΔG (renin): 10.6 kcal/mol; Kd (renin): 29 nM

Q: With “Ac-pro-phe-his-sta-ile-NH2 [Compound U72408E]” as the compound, how does the “−ΔH” value (renin) read?
A: 14.69 kcal/mol

Q: And the “−ΔS” value (renin)?
A: 79.6

Q: What about the “−ΔG” value (renin) of the same compound?
A: 9.9 kcal/mol

Q: What about the Kd (renin) of the same compound?
A: 98 nM

Q: For “Iva-his-pro-phe-his-sta-ile-phe-NH2 [Compound U77455E]”, which “−ΔH” value (renin) is on record?
A: 21.36 kcal/mol

Q: What about the “−ΔS” value (renin) of the same compound?
A: 108.9

Q: What about the “−ΔG” value (renin) of the same compound?
A: 12.4 kcal/mol

Q: And the Kd (renin)?
A: 1.7 nM
